Test results taken from article PMC9598282 (Antibiotics, 2022).
Converted amounts (≈) assume the structure as drawn. “And” between values parts separate entries of the source, which are not always exact repeats. Identical values can stand only once. Bridge positions count the residues as written; N and C are the ends. Square brackets hold non-standard residues; d marks the D form. Peptide text beside a SMILES is read from it. * marks the point of attachment. X1 = CC[C@H](C)CCCCC(=O)*; Dab = NCC[C@H](N)C(=O)O

Experiments:
[1] = tested on: P. aeruginosa 101243; format: cell-based, Pseudomonas aeruginosa; conditions: colistin-resistant isolate
Description: (§1) For the preparation of the bacterial solution, overnight grown culture was diluted in 0.85% saline solution, adjusted to 0.5 McFarland turbidity and further diluted in Mueller–Hinton broth for inoculation to a final concentration of 5 × 10^5 colony forming units/mL (CFU/mL). The agents were serially diluted two-fold in a 96-well plate, and equal volumes of bacterial solution were subsequently added to the designated wells. The well consisting of bacterial solution served as the positive control, while the well containing only media served as the negative control. The plate was then incubated at 37 °C for 18 h. After incubation, an Emax Plus microplate reader (Molecular Devices, Union City, CA, USA) was used to measure the optical density (OD) at a wavelength of 590 nm to confirm the turbidity. The antibacterial activity corresponded to the MIC, which is defined as the lowest concentration of the agent necessary to inhibit visible bacterial growth.

[2] = tested on: P. aeruginosa 114228; format: cell-based, Pseudomonas aeruginosa; conditions: colistin-resistant isolate
Description: as §1

[3] = tested on: P. aeruginosa P259-96918; format: cell-based, Pseudomonas aeruginosa; conditions: colistin-susceptible MDR isolate
Description: as §1

[4] = tested on: P. aeruginosa P262-101856; format: cell-based, Pseudomonas aeruginosa; conditions: colistin-susceptible MDR isolate
Description: as §1

[5] = tested on: P. aeruginosa P264-104354; format: cell-based, Pseudomonas aeruginosa; conditions: colistin-susceptible MDR isolate
Description: as §1

[6] = tested on: A. baumannii 110193; format: cell-based, Acinetobacter baumannii; conditions: colistin-susceptible MDR isolate
Description: as §1

[7] = tested on: A. baumannii 92247; format: cell-based, Acinetobacter baumannii; conditions: colistin-resistant isolate
Description: as §1

[8] = tested on: A. baumannii AB027; format: cell-based, Acinetobacter baumannii; conditions: colistin-susceptible MDR isolate
Description: as §1

[9] = tested on: A. baumannii AB031; format: cell-based, Acinetobacter baumannii; conditions: colistin-susceptible MDR isolate
Description: as §1

[10] = tested on: A. baumannii ATCC 17978; format: cell-based, Acinetobacter baumannii; conditions: wild-type
Description: as §1

[11] = tested on: A. baumannii LAC-4; format: cell-based, Acinetobacter baumannii; conditions: colistin-susceptible MDR isolate
Description: as §1

[12] = tested on: E. coli 107115; format: cell-based, Escherichia coli; conditions: colistin-susceptible MDR isolate
Description: as §1

[13] = tested on: E. coli 94393; format: cell-based, Escherichia coli; conditions: colistin-resistant isolate
Description: as §1

[14] = tested on: E. coli 94474; format: cell-based, Escherichia coli; conditions: colistin-resistant isolate
Description: as §1

[15] = tested on: E. cloacae 118564; format: cell-based, Enterobacter cloacae; conditions: colistin-resistant isolate
Description: as §1

[16] = tested on: E. cloacae 121187; format: cell-based, Enterobacter cloacae; conditions: colistin-resistant isolate
Description: as §1

[17] = tested on: K. pneumoniae 113250; format: cell-based, Klebsiella pneumoniae; conditions: colistin-resistant isolate
Description: as §1

[18] = tested on: K. pneumoniae 113254; format: cell-based, Klebsiella pneumoniae; conditions: colistin-resistant isolate
Description: as §1

[19] = tested on: P. aeruginosa PA 107092; assay: MIC, broth microdilution; format: cell-based, Pseudomonas aeruginosa; conditions: β-lactamase harboring isolate
Description: as §1

[20] = tested on: P. aeruginosa PA 108590; assay: MIC, broth microdilution; format: cell-based, Pseudomonas aeruginosa; conditions: β-lactamase harboring isolate
Description: as §1

[21] = tested on: P. aeruginosa PA 109084; assay: MIC, broth microdilution; format: cell-based, Pseudomonas aeruginosa; conditions: β-lactamase harboring isolate
Description: as §1

[22] = tested on: P. aeruginosa PA 86052; assay: MIC, broth microdilution; format: cell-based, Pseudomonas aeruginosa; conditions: β-lactamase harboring isolate
Description: as §1

[23] = tested on: P. aeruginosa PA 88949; assay: MIC, broth microdilution; format: cell-based, Pseudomonas aeruginosa; conditions: β-lactamase harboring isolate
Description: as §1

[24] = tested on: P. aeruginosa PAO1; assay: microbe, parasite or virus in culture; format: cell-based, Pseudomonas aeruginosa
In short: (§2)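 Two-fold serial dilutions of antibiotic and guanidinylated polymyxin adjuvant crossed in checkerboard against bacterial inoculum prepared as for susceptibility testing; 18 h at 37 °C, growth read as OD590. FIC index = sum of each agent's MIC in combination divided by its MIC alone; ≤0.5 synergy, >0.5–4 additivity, >4 antagonism.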

[25] = tested on: A. baumannii ATCC 17978; assay: microbe, parasite or virus in culture; format: cell-based, Acinetobacter baumannii
In short: as §2

[26] = tested on: E. coli ATCC 25922; assay: microbe, parasite or virus in culture; format: cell-based, Escherichia coli
In short: as §2

[27] = agent alone, one value per checkerboard plate

In the case of `CC[C@H](C)CCCCC(=O)N[C@@H](CCN)C(=O)N[C@H](C(=O)N[C@@H](CCN)C(=O)N[C@H]1CCNC(=O)[C@H]([C@@H](C)O)NC(=O)[C@H](CCN)NC(=O)[C@H](CCN)NC(=O)[C@H](CC(C)C)NC(=O)[C@@H](CC(C)C)NC(=O)[C@H](CCN)NC1=O)[C@@H](C)O` [Colistin, colistin] (X1-[Dab]T[Dab][Dab][Dab][dL]L[Dab][Dab]T; lactam 4-C (inferred); N-terminus assumed), the MIC [1] is reported as 1024 µg/mL (≈ 876 µM), the MIC [2] is reported as 4 µg/mL (≈ 3.42 µM) and the MIC [3] is reported as 0.5 µg/mL (≈ 0.428 µM). For the same molecule, the MIC [4] was 2 µg/mL (≈ 1.71 µM), the MIC [5] was 1 µg/mL (≈ 0.855 µM) and the MIC [6] was 0.5 µg/mL (≈ 0.428 µM). The MIC [7] was 4 µg/mL (≈ 3.42 µM), the MIC [8] was 0.25 µg/mL (≈ 0.214 µM) and the MIC [9] was 0.25 µg/mL (≈ 0.214 µM). It also gave an MIC [10] of 0.5 µg/mL (≈ 0.428 µM), an MIC [11] of 0.125 µg/mL (≈ 0.107 µM) and an MIC [12] of 0.125 µg/mL (≈ 0.107 µM). It also gave an MIC [13] of 4 µg/mL (≈ 3.42 µM), an MIC [14] of 16 µg/mL (≈ 13.7 µM) and an MIC [15] of over 128 µg/mL. For the same molecule, the MIC [16] was over 128 µg/mL, the MIC [17] was 256 µg/mL (≈ 219 µM) and the MIC [18] was 256 µg/mL (≈ 219 µM). For the same molecule, the MIC [19] was 0.5 µg/mL (≈ 0.428 µM), the MIC [20] was 1 µg/mL (≈ 0.855 µM) and the MIC [21] was 0.5 µg/mL (≈ 0.428 µM). The MIC [22] was 1 µg/mL (≈ 0.855 µM), the MIC [23] was 1 µg/mL (≈ 0.855 µM) and the “Absolute MIC of antibiotic at 4 μg/mL GCol” value [24] was 0.5 µg/mL. The “Absolute MIC of antibiotic at 4 μg/mL GPMB” value [24] was 1 µg/mL, the MIC alone [24, 27] was 0.5 µg/mL and 1 µg/mL and the Fold-potentiation of antibiotic ([24]; at 4 μg/mL GCol) was 1. The Fold-potentiation of antibiotic ([24]; at 4 μg/mL GPMB) was 1, the “Absolute MIC of antibiotic at 2 μg/mL GCol” value [25] was 0.25 µg/mL and the “FIC index antibiotic + GPMB” value [25] was 1.016. For the same molecule, the MIC alone [25, 27] was 0.25 µg/mL, the Fold-potentiation of antibiotic ([25]; at 2 μg/mL GCol) was 1 and the Fold-potentiation of antibiotic ([25]; at 2 μg/mL GPMB) was 1. For the same molecule, the “Absolute MIC of antibiotic at 2 μg/mL GCol” value [26] was 0.125 µg/mL, the “Absolute MIC of antibiotic at 2 μg/mL GPMB” value [26] was 0.0313 µg/mL and the “FIC index antibiotic + GCol” value [26] was 1.016. The “FIC index antibiotic + GPMB” value [26] was 0.25, the MIC alone [26, 27] was 0.125 µg/mL and 0.25 µg/mL and the Fold-potentiation of antibiotic ([26]; at 2 μg/mL GCol) was 1. The Fold-potentiation of antibiotic ([26]; at 2 μg/mL GPMB) was 8.
